From patent US6743818B2, “Cyclobutaindolecarboxamide compounds” (Les Laboratoires Servier, priority 2000, dated 2004)

Legend:
[1] = tested on: Male mice of the NMRI strain; test: Marble-burying test in the mouse; format: in vivo; conditions: s.c.; inhibition of spontaneous marble-burying, 30 minutes' free exploration
From the text: This test allows evaluation of the capacity of pharmacological agents to inhibit the spontaneous marble-burying behaviour of mice, the inhibition being predictive of antidepressant and/or anti-impulsive action. Male mice of the NMRI strain (Iffa-Credo, l'Arbresle, France) weighing from 20 to 25 g on the day of the experiment are placed individually in Macrolon boxes (30×18×19 cm) containing 5 cm of sawdust and covered with a perforated plexiglass plate. Twenty four “tiger's eye” glass marbles are evenly distributed on the sawdust at the periphery of the box. At the end of 30 minutes' free exploration, the animals are removed from the box and the number of buried marbles is counted.

male Wistar rats = test: Vogel conflict test; format: in vivo, rat; conditions: s.c.; for Punished licks (1 shock/20 licks): 3 minutes of test
Procedure: The test is carried out on male Wistar rats (IFFA-CREDO) weighing from 230 to 250 g, which are kept in groups of 4 on sawdust in cages in an animal house, with free access to food and drink, for 5 days before they are used, under the following conditions: temperature (21±1° C.), humidity (60±5%) and a 12 hour diurnal cycle (07:00 to 19:00 hours).
On the Monday following their arrival, the animals are transferred to the experiment room where they stay until Friday, the day of the test. For 4 days, from Monday to Thursday inclusive, the animals have access to drink for only one hour per day (from 09:00 to 10:00 hours).
On the day before the test, the animals are isolated from 15:00 hours in cages, on grills, without either food or drink.
The test is carried out in a transparent plastics cage located in a soundproofed and ventilated enclosure. The cage has a chrome steel floor. The metal tip of the bottle containing the drink enters the cage at a height of 6 cm above the metal floor. The floor and the tip of the bottle are connected by electric cables to an apparatus which records the licks of the animal and controls the administration of electric shocks. The apparatus is so regulated that the animal receives an electric shock (between tip and metal floor) every 20 licks of the tip.
On the day of the test, the animal is given an injection (s.c.) of physiological serum (control) or of the test product 30 minutes before being placed in the test cage. The session begins as soon as the animal has carried out 20 licks and received a first electric shock (duration 0.5 seconds, intensity 0.300 mA). For a period of 3 minutes, the animal receives an electric shock each time it carries out 20 licks.
The results are the numbers of licks and of shocks received by the animal during the 3 minutes of the test.
The numbers of licks and of shocks received by the treated animals are compared with those of the control animals by variance analysis, followed by a Dunnett's test with p<0.05. An anxiolytic product increases the number of licks and of shocks received by the animal compared with the controls. For information only, the average number of licks not punished in the animals which have been made thirsty is 674.9±44.5 (N=7) over 3 minutes.
The effectiveness of a product is expressed by the minimum effective dose (MED), that is to say, the lowest dose producing a significant difference compared with the controls. That dose is 2.5 mg/kg s.c. for the product of Example 1.

SMILES: O=C(Nc1cccnc1)N1CCc2cc3c(cc21)CC3 [Example 1, N-(3-Pyridyl)-2,3,5,6-tetrahydro-1H-cyclobuta[f]indole1-carboxamide]
- MED (minimum effective dose) [1]: 2.5 mg/kg
- Punished licks (1 shock/20 licks) (male Wistar rats; dose 0.63 mg/kg, N=8): 197.5 ± 59.5
- Punished licks (1 shock/20 licks) (male Wistar rats; dose 2.5 mg/kg, N=8, *p < 0.05): 560.1 ± 67.0*
- Punished licks (1 shock/20 licks) (male Wistar rats; dose 10.0 mg/kg, N=7, *p < 0.05): 499.3 ± 95.3*
- minimum effective dose (MED) (male Wistar rats; 30 minutes before test, lowest dose producing a significant difference compared with the controls (p<0.05)): 2.5 mg/kg
